Source: ChEMBL document CHEMBL1158418, “Privileged structure-guided synthesis of quinazoline derivatives as inhibitors of trypanothione reductase” (Bioorg Med Chem Lett, 2009)
Calls of active or inactive are those of the source. The rule behind the calls is not given here.

Legend:
[1] = tested on: Trypanosoma cruzi; assay: Antitrypanosomal activity against Trypanosoma cruzi amastigotes infected in rat L6 cells; type: functional, organism-based
[2] = biological target: Trypanothione reductase (Trypanosoma cruzi) (UniProt P28593); assay: Inhibition of Trypanosoma cruzi recombinant trypanothione reductase at 100 uM by spectrophotometry using 50 uM trypanothione disulfide
Sequence of Trypanothione reductase (Trypanosoma cruzi) (P28593 whole entry, looked up): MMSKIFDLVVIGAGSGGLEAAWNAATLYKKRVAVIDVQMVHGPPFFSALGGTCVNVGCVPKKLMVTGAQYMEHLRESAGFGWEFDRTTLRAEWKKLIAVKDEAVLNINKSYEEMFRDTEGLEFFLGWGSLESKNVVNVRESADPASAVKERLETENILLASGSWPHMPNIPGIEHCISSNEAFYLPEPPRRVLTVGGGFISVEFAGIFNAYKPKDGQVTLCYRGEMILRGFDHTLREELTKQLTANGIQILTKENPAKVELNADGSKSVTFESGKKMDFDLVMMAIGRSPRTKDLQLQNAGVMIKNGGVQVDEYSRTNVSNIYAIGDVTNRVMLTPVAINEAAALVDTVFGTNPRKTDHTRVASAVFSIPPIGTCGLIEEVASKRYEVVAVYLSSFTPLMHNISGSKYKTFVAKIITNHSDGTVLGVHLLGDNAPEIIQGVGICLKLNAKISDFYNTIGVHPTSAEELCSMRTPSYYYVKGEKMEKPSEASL

[3] = tested on: Plasmodium falciparum; assay: Antiplasmodial activity against intraerythrocytic form of Plasmodium falciparum; type: functional, organism-based
[4] = tested on: Trypanosoma brucei rhodesiense; assay: Antitrypanosomal activity against Trypanosoma brucei rhodesiense bloodstream trypomastigotes; type: functional, organism-based
[5] = tested on: Leishmania donovani; assay: Antileishmanial activity against Leishmania donovani axenic amastigotes; type: functional, organism-based
[6] = tested on: L6; assay: Cytotoxicity against rat L6 cells; type: cell-based
[7] = biological target: Trypanothione reductase (Trypanosoma cruzi) (UniProt P28593); assay: Inhibition of Trypanosoma cruzi recombinant trypanothione reductase at 100 uM by spectrophotometry using 100 uM trypanothione disulfide
[8] = biological target: T1, Trypanothione reductase (Trypanosoma cruzi, UniProt P28593); assay: Inhibition of Trypanosoma cruzi recombinant trypanothione reductase by spectrophotometry-based non competitive inhibition type assay
T1 sequence (P28593 whole entry): as the sequence (P28593 whole entry, looked up) above

[9] = biological target: T2, Glutathione reductase, mitochondrial (Homo sapiens) (UniProt P00390); assay: Inhibition of human glutathione reductase at 10 uM by spectrophotometry in presence of 100 uM GSSG
T2 sequence (whole entry): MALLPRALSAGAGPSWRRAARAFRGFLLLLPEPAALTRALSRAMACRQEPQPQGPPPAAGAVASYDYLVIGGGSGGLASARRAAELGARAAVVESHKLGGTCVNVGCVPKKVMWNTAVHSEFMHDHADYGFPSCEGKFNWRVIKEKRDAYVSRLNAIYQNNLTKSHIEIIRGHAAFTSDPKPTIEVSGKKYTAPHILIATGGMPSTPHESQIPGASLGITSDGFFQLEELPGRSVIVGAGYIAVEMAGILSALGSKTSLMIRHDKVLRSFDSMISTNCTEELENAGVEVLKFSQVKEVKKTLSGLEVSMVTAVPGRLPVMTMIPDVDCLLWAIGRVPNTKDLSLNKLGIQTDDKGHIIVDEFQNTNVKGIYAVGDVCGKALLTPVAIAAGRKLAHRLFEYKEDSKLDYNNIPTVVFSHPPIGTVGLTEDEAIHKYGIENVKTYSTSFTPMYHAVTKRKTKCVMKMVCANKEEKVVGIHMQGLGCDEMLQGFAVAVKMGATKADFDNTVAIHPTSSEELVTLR

[10] = biological target: Trypanothione reductase (Trypanosoma cruzi) (UniProt P28593); assay: Inhibition of Trypanosoma cruzi recombinant trypanothione reductase at 25 uM by spectrophotometry using 50 uM trypanothione disulfide
[11] = biological target: Trypanothione reductase (Trypanosoma cruzi) (UniProt P28593); assay: Inhibition of Trypanosoma cruzi recombinant trypanothione reductase at 25 uM by spectrophotometry using 100 uM trypanothione disulfide
[12] = biological target: T1, Trypanothione reductase; assay: Inhibition of Trypanosoma cruzi recombinant trypanothione reductase by spectrophotometry
[13] = biological target: T1, Trypanothione reductase; assay: Inhibition of Trypanosoma cruzi recombinant trypanothione reductase by spectrophotometry-based mixed inhibition type assay

| Structure (SMILES) | IC50 [1] | inhibition [2] | IC50 [3] | IC50 [4] | IC50 [5] | inhibition [7] | Ki [8] | inhibition [9] | inhibition [10] | inhibition [11] | Ki [12] | Ki [13] | IC50 [6] |
| --- | --- | --- | --- | --- | --- | --- | --- | --- | --- | --- | --- | --- | --- |
| COC1=CC(=O)C=C(N2CCN(c3nc(N)c4cc(OC)c(OC)cc4n3)CC2)C1=O | 35.6 µM | 69% | 3.01 µM | 1.98 µM | 45.7 µM | 75% | 32 µM |  |  |  |  |  | 52.5 µM |
| COc1cc2nc(N3CCN(C(=O)[C@@H]4Cc5ccccc5CN4)CC3)nc(N)c2cc1OC | 14.3 µM | 0% | 2.1 µM | 1.81 µM | > 67 µM | 0% |  |  |  |  |  |  | 14.2 µM |
| CN(C)CCOc1cc2nc(N3CCN(C4=CC(=O)c5ccccc5C4=O)CC3)nc(N)c2cc1OCCN(C)C |  |  |  |  |  |  | 11 µM |  |  |  |  |  |  |
| COc1cc2nc(N3CCN(C(=O)[C@H]4Cc5ccccc5CN4)CC3)nc(N)c2cc1OC | 27.6 µM | 0% | 1.24 µM | 5.37 µM | > 67 µM | 0% |  |  |  |  |  |  | 37.2 µM |

Now from value to compound, other results behind:

| IC50 [1] | inhibition [2] | IC50 [3] | IC50 [4] | IC50 [5] | inhibition [7] | Ki [8] | inhibition [9] | inhibition [10] | inhibition [11] | Ki [12] | Ki [13] | Structure (SMILES) | IC50 [6] |
| --- | --- | --- | --- | --- | --- | --- | --- | --- | --- | --- | --- | --- | --- |
| 3.68 µM |  | 0.53 µM | 0.12 µM | 1.78 µM |  |  | inactive | 53% | 57% | 7.5 µM | 22 µM | COc1cc2nc(N3CCN(C4=CC(=O)c5ccccc5C4=O)CC3)nc(N)c2cc1OC | 2.76 µM |
| 10.2 µM | 13% | 1.35 µM | 2.21 µM | 42.2 µM | 23% |  |  |  |  |  |  | COc1cc2nc(N3CCN(C(=O)Cc4c[nH]c5ccccc45)CC3)nc(N)c2cc1OC | 19.6 µM |
|  |  |  |  |  |  |  |  |  |  |  | 16 µM | COc1cc(C(=N)NC2CCC(CC3CCC(/N=C(\N)c4ccc(OCc5ccccc5)c(OC)c4)CC3)CC2)ccc1OCc1ccccc1 (stereo not drawn) |  |
| > 50 µM | 44% | 2.19 µM | 21.8 µM | > 54 µM | 33% |  |  |  |  |  |  | CN(C)CCOc1cc2nc(N3CCN(C(=O)Cc4c[nH]c5ccccc45)CC3)nc(N)c2cc1OCCN(C)C | > 161 µM |
